The values that follow come from patent US5464861A, “2-thioindoles (selenoindoles) and related disulfides (selenides) which inhibit protein tyrosine kinases and which have antitumor properties” (Warner-Lambert, priority 1993, dated 1995).

The assay concerns the target T1, epidermal growth factor receptor tyrosine kinase (Homo sapiens, UniProt P00533).
T1 construct: A native 170,000 epidermal growth factor receptor-kinase complex from shed plasma membrane vesicles; endogenous in cells
As to the kind of experiment: EGF receptor tyrosine kinase assay (P^32 incorporation in GAT). The note with it: for inhibition at 100 µM: EGRF-R, read-out: % Inhibition at 100 μM (EGFR TK). The assay is classed as biochemical. As to the method:
At the time of assay, membranes were solubilized in 4% Triton X-100 and glycerol. The reaction is carried out in wells of a 96-well microtiter plate in a total volume of […]. Buffer containing 20 mMHepes (pH 7.4), 15 mMMgCl2, mM MnCl2, and 0.02% BSA followed by […] of membrane protein and 150 ng of epidermal growth factor. The plates are incubated for 10 minutes at room temperature to activate the receptor kinase. […] ATP plus or minus compound are added and incubated 10 minutes at room temperature.

[1] abbreviates: Table 2, EGRF-R, IC50 entries, read-out: IC50 (EGFR TK).

Like-named read-outs stand apart in the source and are kept apart here.

T1 sequence (P00533 25-1210): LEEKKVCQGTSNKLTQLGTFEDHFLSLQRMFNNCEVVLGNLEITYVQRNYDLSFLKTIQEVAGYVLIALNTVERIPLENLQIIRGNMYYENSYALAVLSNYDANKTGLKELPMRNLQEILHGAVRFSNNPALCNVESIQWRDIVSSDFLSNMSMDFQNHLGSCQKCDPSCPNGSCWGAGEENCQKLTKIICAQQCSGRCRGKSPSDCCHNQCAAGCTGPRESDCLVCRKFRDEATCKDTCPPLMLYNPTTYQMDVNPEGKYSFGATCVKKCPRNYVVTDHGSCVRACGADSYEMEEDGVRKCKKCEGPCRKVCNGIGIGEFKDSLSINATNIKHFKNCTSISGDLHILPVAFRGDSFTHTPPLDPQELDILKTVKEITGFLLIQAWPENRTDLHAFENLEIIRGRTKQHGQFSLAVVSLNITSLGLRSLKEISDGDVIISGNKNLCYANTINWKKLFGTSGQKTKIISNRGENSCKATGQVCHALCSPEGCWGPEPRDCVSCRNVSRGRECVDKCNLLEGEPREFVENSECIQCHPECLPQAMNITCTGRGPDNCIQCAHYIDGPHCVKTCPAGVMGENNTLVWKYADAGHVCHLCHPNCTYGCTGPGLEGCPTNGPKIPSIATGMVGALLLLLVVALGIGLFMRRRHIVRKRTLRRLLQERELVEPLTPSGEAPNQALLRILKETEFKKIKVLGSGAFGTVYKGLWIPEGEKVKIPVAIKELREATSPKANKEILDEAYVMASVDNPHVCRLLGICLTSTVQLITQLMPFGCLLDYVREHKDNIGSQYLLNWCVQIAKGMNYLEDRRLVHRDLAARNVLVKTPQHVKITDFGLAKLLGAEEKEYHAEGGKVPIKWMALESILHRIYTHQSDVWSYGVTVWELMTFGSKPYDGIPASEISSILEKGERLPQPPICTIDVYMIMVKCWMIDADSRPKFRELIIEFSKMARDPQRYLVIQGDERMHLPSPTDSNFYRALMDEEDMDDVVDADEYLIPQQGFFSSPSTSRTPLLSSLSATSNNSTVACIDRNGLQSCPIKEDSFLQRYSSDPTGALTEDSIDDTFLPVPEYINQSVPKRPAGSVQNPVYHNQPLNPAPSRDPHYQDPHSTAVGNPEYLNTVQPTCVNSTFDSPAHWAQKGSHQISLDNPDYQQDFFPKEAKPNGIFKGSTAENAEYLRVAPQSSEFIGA
T1 sequence (P01133 971-1023 partner limits assumed): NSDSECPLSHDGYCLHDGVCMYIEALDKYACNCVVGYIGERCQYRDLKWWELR

For the molecule `Cn1c(S)c(C(=O)Nc2ccccc2)c2cccnc21` [Compound 19, N-phenyl (1-methyl-7-aza-2-thioxo-3-indolinyl)carboxamide], the inhibition (as a rule, the share of the control response that was lost under treatment) at 100 µM was found to be 10%.
Turning to `O=C(O)CCCC1C(=S)Nc2ccccc21` (centres unmarked) [Compound 15, 4-(2-thioxo-3-indolinyl)butanoic acid], under setting [1], the half-inhibitory concentration (IC50) (as a rule, the midpoint of a concentration-inhibition curve) came out at 6.8 µM.
Turning to `Cn1c([Se][Se]c2c(C(=O)O)c3ccccc3n2C)c(C(=O)O)c2ccccc21` [Compound 130, 2,2'-diselenobis [1-methyl-1H-indole-3-carboxylic acid]], the half-inhibitory concentration (IC50) (read-out: IC50 (EGFR TK)) came out at 3.5 µM.
With `CCOC(=O)CC1C(=S)N(C)c2ccccc21` (centres unmarked) [Compound 5, ethyl 2-(1-methyl-2-thioxo-3-indolinyl)acetate], the inhibition at 100 µM worked out at 4%.
`CNC(=O)c1c(SSc2[nH]c3ccccc3c2C(=O)NC)[nH]c2ccccc12` [Compound 127, 2,2'-dithiobis[N-methylindolinyl-3-carboxamide]]: the IC50 under setting [1] was 6.8 µM.
`COC(=O)c1ccc(NC(=O)c2c(SSc3c(C(=O)Nc4ccc(C(=O)OC)cc4)c4ccccc4n3C)n(C)c3ccccc23)cc1` [Compound 104, 2,2'-dithiobis [N-(4'-carbomethoxy)phenyl-1-methylindolyl-3-carboxamide]]: the inhibition at 100 µM was 20%.
Same read-out and setting: next, `O=C(CCC1C(=S)Nc2ccccc21)NCc1ccccc1` (centres unmarked) [Compound 13, N-benzyl 3-(2-thioxo-3-indolinyl) propanamide]: 43%; `COC(=O)c1ccccc1NC(=O)c1c(SSc2c(C(=O)Nc3ccccc3C(=O)OC)c3ccccc3n2C)n(C)c2ccccc12` [Compound 108, 2,2'-dithiobis [N-(2-carbomethoxy)phenyl-1-methylindolyl-3-carboxamide]]: 20%.
On to `O=C(O)CCCc1c(SSc2[nH]c3ccccc3c2CCCC(=O)O)[nH]c2ccccc12` [Compound 65, bis[indolyl-3-butanoic acid-(2)]disulfide], for which the 50% inhibitory concentration (IC50) under setting [1] was found to be 17.8 µM.
Still for that read-out and setting: next, `CC(=O)OC(Cc1c(SSc2[nH]c3ccccc3c2CC(OC(C)=O)C(=O)NCc2ccccc2)[nH]c2ccccc12)C(=O)NCc1ccccc1` (centres unmarked) [Compound 63]: 60 µM.
Take `CC(=O)NC(Cc1c(SSc2[nH]c3ccccc3c2CC(NC(C)=O)C(=O)NCc2ccccc2)[nH]c2ccccc12)C(=O)NCc1ccccc1` (racemic) [Compound 60]: the inhibition at 100 µM was found to be 53%.
Take `CN1C(=S)C(CCC(=O)O)c2ccccc21` (centres unmarked) [Compound 8, 3-(1-methyl-2-thioxo-3-indolinyl)propanoic acid]: the IC50 under setting [1] worked out at 8.5 µM.
On the same count and under the same terms, next, `Cc1cccc2c(CCC(=O)O)c(SSc3[nH]c4c(C)cccc4c3CCC(=O)O)[nH]c12` [Compound 45, bis[7-methylindolyl-3-propanoic acid-(2)] disulfide]: 1.6 µM; `COC(=O)c1ccc(C(=O)c2c(SSc3c(C(=O)c4ccc(C(=O)OC)cc4)c4ccccc4n3C)n(C)c3ccccc23)cc1` [Compound 102, bis[3-(4'-carbomethoxybenzoyl)-1-methylindole-(2)]disulfide]: 6.1 µM.
Consider `CCN(CC)CCn1c([Se][Se]c2c(C(=O)NC)c3ccccc3n2CCN(CC)CC)c(C(=O)NC)c2ccccc21` [Compound 135, 2,2'-diselenobis [1-[2-(diethylamino)ethyl] -N-methyl-1H-indole-3-carboxamide]], for which the half-inhibitory concentration (IC50) (read-out: IC50 (EGFR TK)) is 6.9 µM.
As to `CN(C)C(=O)CCc1c(SSc2[nH]c3ccccc3c2CCC(=O)N(C)C)[nH]c2ccccc12` [Compound 53], the IC50 under setting [1] was found to be 4.2 µM.
The same measure, in the same setting: for `CC(=O)c1c(SSc2c(C(C)=O)c3ccccc3n2C)n(C)c2ccccc12` [Compound 121, 2,2'-dithiobis(3-acetyl-1-methylindole)] the value was 5.6 µM.
Turning to `COC(=O)CC1C(=S)N(C)c2ccccc21` (centres unmarked) [Compound 4, methyl 2-(1-methyl-2-thioxo-3-indolinyl)acetate], the inhibition at 100 µM was found to be 27%.
As to `Cn1c(SSc2c(C#N)c3ccccc3n2C)c(C#N)c2ccccc21` [Compound 120], under setting [1], the half-maximal inhibitory concentration (IC50) came to 6.9 µM.
With `CN1C(=S)C(CC(=O)O)c2ccccc21` (centres unmarked) [Compound 2, 2-(1-methyl-2-thioxo-3-indolinyl)acetic acid], the inhibition at 100 µM was 26%.
As for `Cn1c([Se][Se]c2c(C(=O)OC(C)(C)C)c3ccccc3n2C)c(C(=O)OC(C)(C)C)c2ccccc21` [Compound 129, 2,2'-diselenobis [1-methyl-1H-indole-3-carboxylic acid, t-butyl ester]], the inhibition at 100 µM is 31%.
Take `Cn1c(SSc2c(CCC(=O)O)c3ccccc3n2C)c(CCC(=O)O)c2ccccc21` [Compound 37]: the IC50 under setting [1] worked out at 3.3 µM.
The same measure, in the same setting: for `Cn1c(SSc2c(C(=O)Nc3cccc(C(=O)O)c3)c3ccccc3n2C)c(C(=O)Nc2cccc(C(=O)O)c2)c2ccccc21` [Compound 107, 2,2'-dithiobis[N-(3-carboxy)phenyl-1-methylindolyl-3-carboxamide]] the value was 12 µM; for `N#CCCc1c(SSc2[nH]c3ccccc3c2CCC#N)[nH]c2ccccc12` [Compound 48, 2,2'-dithiobis[3-indolylpropionitrile]], 35.5 µM.
The same measure, in the same setting: for `O=C(O)CC1C(=S)Nc2ccccc21` (centres unmarked) [Compound 1, 2-(2-thioxo-3-indolinyl)acetic acid] the value was 14.9 µM.
As for `O=C(NCc1ccccc1)c1c(SSc2[nH]c3ccccc3c2C(=O)NCc2ccccc2)[nH]c2ccccc12` [Compound 125, 2,2'-dithiobis [N-benzylindolyl-3-carboxamide]], the inhibition at 100 µM was found to be 78%.
Still for that read-out and setting: next, `O=C(Nc1ccccc1)c1c(SSc2[nH]c3ccccc3c2C(=O)Nc2ccccc2)[nH]c2ccccc12` [Compound 126, 2,2'-dithiobis [N-phenylindolyl-3-carboxamide]]: 60%.
Still for that read-out and setting: next, `CC(=O)Oc1ccc2c(C(=O)Nc3ccccc3)c(SSc3c(C(=O)Nc4ccccc4)c4ccc(OC(C)=O)cc4n3C)n(C)c2c1` [Compound 93, 2,2'-dithiobis [N-phenyl-6-acetoxy-1-methylindolyl-3-carboxamide]]: 30%; `COC(=O)CCC1C(=S)N(C)c2ccccc21` (centres unmarked) [Compound 11, methyl 3-(1-methyl-2-thioxo-3-indolinyl)propanoate]: 24%; `CCOC(=O)CCC1C(=S)N(C)c2ccccc21` (centres unmarked) [Compound 12, ethyl 3-(1-methyl-2-thioxo-3-indolinyl)propanoate]: 3%.
On to `O=[N+]([O-])CCc1c(SSc2[nH]c3ccccc3c2CC[N+](=O)[O-])[nH]c2ccccc12` [Compound 49, 2,2'-dithiobis[3-(2-nitroethyl)indole]], for which the half-maximal inhibitory concentration (IC50) was 84.1 µM.
Consider `CN1C(=S)C(C(=O)Nc2ccccc2)c2cc(Cl)ccc21` (centres unmarked) [Compound 20, N-phenyl 5-chloro-1-methyl-2-thioxoindole-3-carboxamide], for which, under setting [1], the 50% inhibitory concentration (IC50) came to 9 µM.
Turning to `Cn1c(SSc2c(C(=O)Nc3ccccc3)c3cccc(Cl)c3n2C)c(C(=O)Nc2ccccc2)c2cccc(Cl)c21` [Compound 74, bis [N-phenyl-7-chloro-1-methylindolyl-3-carboxamide-(2)]disulfide], the inhibition at 100 µM was determined as 23%.
Take `COC(=O)c1ccc(CNC(=O)c2c(SSc3c(C(=O)NCc4ccc(C(=O)OC)cc4)c4ccccc4n3C)n(C)c3ccccc23)cc1` [Compound 110, 2,2'-dithiobis [N-(4'-carbomethoxy)benzyl 1-methylindolyl-3-carboxamide]]: under setting [1], the half-maximal inhibitory concentration (IC50) was determined as 13 µM.
Still for that read-out and setting: next, `CN1C(=S)C(CCCC(=O)O)c2ccccc21` (centres unmarked) [Compound 16, 4-(1-methyl-2-thioxo-3-indolyl) butanoic acid]: 23 µM.
On to `COC(=O)CCCC1C(=S)Nc2ccccc21` (centres unmarked) [Compound 17, methyl 4-(2-thioxo-3-indolinyl)butanoate], for which the inhibition at 100 µM turned out to be 12.5%.
As for `O=C(CCc1c(SSc2[nH]c3ccccc3c2CCC(=O)NCc2ccc(C(=O)O)c(O)c2)[nH]c2ccccc12)NCc1ccc(C(=O)O)c(O)c1` [Compound 58], the inhibition at 100 µM is 68%.
Same read-out and setting: next, `Cn1c(SSc2c(C(=O)Nc3ccccn3)c3ccccc3n2C)c(C(=O)Nc2ccccn2)c2ccccc21` [Compound 122, 2,2'-dithiobis [N-(2'-pyridyl)-1-methylindole-3-carboxamide]]: 51%.
For `Cn1c(SSc2c(C(=O)c3ccc(C(=O)O)cc3)c3ccccc3n2C)c(C(=O)c2ccc(C(=O)O)cc2)c2ccccc21` [Compound 101, bis[3-(4'-carboxybenzoyl)-1-methylindole-(2)]disulfide], under setting [1], the concentration for half-maximal inhibition (IC50) came out at 5.5 µM.
Same read-out and setting: for `CNC(=O)CCc1c(SSc2[nH]c3ccccc3c2CCC(=O)NC)[nH]c2ccccc12` [Compound 51] the value was 7 µM; for `Cc1ccc2c(CCC(=O)O)c(SSc3[nH]c4cc(C)ccc4c3CCC(=O)O)[nH]c2c1` [Compound 43, bis[methylindolyl-3-propanoate-(2)]disulfide], 2.9 µM; for `CN1C(=S)C(C(=O)c2ccc(C(=O)O)cc2)c2ccccc21` (centres unmarked) [Compound 25, 3-(4'-carboxybenzoyl)-1-methyl-2-indolinethione], 8.7 µM.
The same measure, in the same setting: next, `CC(=O)Oc1cccc2c(C(=O)Nc3ccccc3)c(SSc3c(C(=O)Nc4ccccc4)c4cccc(OC(C)=O)c4n3C)n(C)c12` [Compound 95, 2,2'-dithiobis[N-phenyl-7-acetoxy-1-methylindolyl-3-carboxamide]]: 9.4 µM.
Turning to `COC(=O)c1cccc(NC(=O)c2c(SSc3c(C(=O)Nc4cccc(C(=O)OC)c4)c4ccccc4n3C)n(C)c3ccccc23)c1` [Compound 106, 2,2'-dithiobis [N-(3'-carbomethoxy)phenyl-1-methylindolyl-3-carboxamide]], the inhibition at 100 µM stood at 34%.
